Here are results for two compounds from patent US20240002326A1, “COMPOUNDS AND USE THEREOF IN METHODS OF TREATMENT” (The University of Queensland, priority 2016, published 2024).

Bounds are passed on as bounds.

The nature of series [1]: Cytotoxicity assay (Alamar blue), COS-7. Format: cell-based, Monkey. The settings on record: chlorocebus aethiops, COS-7 cells; COS7, 24 h; read-out: In vitro cytotoxicity CC50 ± SD COS7. The method, then:
(§1) Cell toxicity was determined using Alamar blue, as previously described (McMillian et al., 2002). COS-7 cells were seeded as 7000 cells per well in black wall clear bottom 96-well plates in DMEM medium (Life Technologies Australia) with 10% FBS. HepG2 and HEK293 cell lines, from ATCC, were seeded as 5000 cells per well in black wall clear bottom 384-well cell culture plates in DMEM with 1% FBS. Cells were cultured for 24 h at 37° C., 5% CO2. A serial dilution of compounds was added, with a final DMSO concentration adjusted to 0.5% v/v. Cells were incubated for another 24 h. 1 Triton X-100 was used as negative control, and 0.5% DMSO as positive control. 5 μM Alamar blue was added to each well and fluorescence was measured (λexc=560 nm, λem=590 nm) after 2 h incubation at 37° C. Data were analysed using Prism software.
On the technique in general: Alamar Blue is a resazurin reagent that responds to reducing activity.

Another series addresses human COX2 (Homo sapiens (Human), UniProt P35354). Put plainly: COX2 enzymatic assay. It is filed as biochemical. The settings on record: up to a concentration of 200 μM. The method, then: COX inhibition activity was measured using COX1 and COX2 inhibitor screening assay kits from Cayman Chemical Company (Ref #701090 and 701080). All compounds were tested in quadruplicate at a single 200 μM concentration in 2% v/v final DMSO. Compounds were preincubated with ovine COX1 or human COX2 at 37° C. for 10 min before incubation with COX substrate arachidonic acid for another 3 min. Reactions were stopped by addition of concentrated hydrochloric acid. Prostanoid standard curve was prepared and enzyme immunoassay performed as per manufacturer's description. […] Prostanoid standards values were plotted as logit (B/B0) versus log concentrations and fitted with linear regression using GraphPad Prism version 6.0. Standard curve linear fit was used to calculate each samples concentrations.

Another series deals with COS-7 cells. Kind of series: Cytotoxicity assay (Alamar blue), COS-7. Format: cell-based, Monkey. The following applies: COS7, 24 h; read-out: In vitro cytotoxicity CC50 ± SD COS7. The method, then:
as §1

Another series relates to scrambled DNA. Kind of series: Direct DNA-binding assay (SPR), scrambled DNA. The following applies: biotinylated double-strand DNA on streptavidin chip. The method, then:
(§2) Compounds were tested at a 1% v/v DMSO in HBS-EP buffer (10 mM HEPES, 150 mM NaCl, 3 mM EDTA, 0.005% v/v polysorbate 20, pH 7.4). The same buffer supplemented with 1% v/v DMSO was used as a mobile phase. DNA minor groove binder DAPI (4′,6-diamidino-2-phenylindole), DNA intercalator and minor groove binder actinomycin D, and DNA intercalator ethidium bromide were used as positive controls. Biotinylated (one tag per probe) double strand DNA probes were prepared using a standard annealing routine (5 min at 100° C., room temperature overnight and stored at −20° C.) of single strand anti-parallel DNA Probes purchased from Geneworks and were immobilized on CM5-SA streptavidin chips as per manufacturer's recommendations. […] All sample and control cycles were performed in triplicate. DMSO calibration was performed as per manufacturer's recommendations. After each injection, an extra flow system wash was performed with 50% v/v DMSO to avoid carryover. Experiments were run on a Biacore T200 (GE Healthcare, USA), with one flow cell kept as a reference.
(§3) From a molecular viewpoint, an inhibitor of SOX18-DNA binding could act either by interacting directly with the DNA, or the protein, or at the interface between protein and DNA. Binding of small molecules directly to the DNA, even though reported for other TFs (Leung et al., 2013), has the potential for unspecific DNA binding, leading to possible genotoxicity, mutagenicity, or carcinogenicity. For this reason, we developed a direct binding assays to determine whether the active compounds interact directly with DNA or protein. A surface plasmon resonance-based method was developed to analyse the binding of small molecules to biotinylated double stranded DNA immobilized on the surface of a streptavidin chip. The method measures the rate of binding (kon), dissociation (koff) and binding constant (KD), and was used to measure the binding to two different DNA sequences: SOX binding site consensus DNA, and scrambled DNA. Intercalating agents ethidium bromide and Actinomycin D, and the minor groove-binding agent 4′,6-diamino-2-phenylindole (DAPI) were used as positive controls for unselective DNA binding.

For series [2], the system named is SOX binding site consensus DNA. Kind of series: Direct DNA-binding assay (SPR), consensus DNA. The following applies: biotinylated double-strand DNA on streptavidin chip. The method, then: as §2, §3

human COX2, sequence (P35354 18-604): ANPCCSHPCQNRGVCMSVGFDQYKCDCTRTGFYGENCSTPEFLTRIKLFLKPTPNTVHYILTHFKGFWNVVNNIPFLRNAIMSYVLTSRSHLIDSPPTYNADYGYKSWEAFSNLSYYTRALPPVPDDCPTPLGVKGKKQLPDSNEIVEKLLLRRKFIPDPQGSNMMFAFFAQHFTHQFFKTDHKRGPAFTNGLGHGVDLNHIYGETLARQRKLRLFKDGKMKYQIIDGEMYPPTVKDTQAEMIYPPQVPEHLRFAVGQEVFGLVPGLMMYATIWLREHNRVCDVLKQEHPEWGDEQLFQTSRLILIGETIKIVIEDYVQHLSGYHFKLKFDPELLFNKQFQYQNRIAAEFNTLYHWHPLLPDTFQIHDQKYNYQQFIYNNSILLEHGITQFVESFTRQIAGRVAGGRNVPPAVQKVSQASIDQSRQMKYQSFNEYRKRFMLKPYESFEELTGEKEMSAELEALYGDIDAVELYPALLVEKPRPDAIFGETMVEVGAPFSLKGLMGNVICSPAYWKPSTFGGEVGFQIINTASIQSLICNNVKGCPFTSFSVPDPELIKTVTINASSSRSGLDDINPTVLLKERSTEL

A word on the CC50: it is the concentration giving 50% cytotoxicity. For `O=C(O)c1ccccc1Nc1cccc(C(F)(F)F)c1` [Flufenamic acid, reference compound], the CC50 at 24 h in series [1] is 65 ± 2.7 µM.

As for `O=C(O)c1c(O)cccc1COCCc1ccccc1` [Sm5], the COX-2 inhibitory activity entry on human COX2 is recorded as “None of the SOX18 inhibitor display any COX-1 or COX-2 inhibitory activity”. The CC50 in the series with COS-7 cells was above 200 µM. Moreover, the “binding to scrambled DNA (SPR)” value in the series on scrambled DNA was “do not bind”. For the same compound, in series [2], the “binding to consensus DNA (SPR)” value was “do not bind”.
